{"source": "paper PMC8824275", "about": "“Gastrointestinal Stability and Cytotoxicity of Bacteriocins From Gram-Positive and Gram-Negative Bacteria: A Comparative in vitro Study” (Frontiers in Microbiology, 2022)", "key": {"[1]": {"system": "L. ivanovii HPB 28", "type": "cell-based, Listeria ivanovii", "conditions": "for Total activity: broth microdilution", "source_text": "Microcin J25 was produced by Escherichia coli MC4100 carrying the plasmid PTUC 202 ([Solbiati et al., 1999]). For the antibacterial activity of pure compounds and digestion mixture, Listeria ivanovii HPB28 (Canada Health Protection Branch) was used as indicator strain for nisin and pediocin PA-1, while Staphylococcus aureus ATCC 6538 (ATCC) and Salmonella enterica subsp. enterica serovar Newport ATCC 6962 (later referred to as S. Newport, ATCC) were used as indicator strains for bactofencin A (M14L, M18L) and microcin J25, respectively. L. ivanovii HPB28 and S. aureus were cultured in Tryptic Soy (Difco Laboratories, Spark, MD, United States) supplemented with 0.6% yeast extract (TSBYE), at 30 and 37°C, respectively. S. Newport was cultured at 37°C overnight in Luria-Bertani (LB) (Difco Laboratories, Spark, MD, United States). All strains were maintained at –80°C as stock cultures in their corresponding culture media supplemented with 20% glycerol, and propagated twice at 24 h intervals before use.\nQuantitative determination of inhibitory activity of bacteriocins was carried out using the broth microdilution method as described by [Ben Said et al. (2020)]. Two-fold serial dilutions of bacteriocins (125 μL) were prepared in an appropriate medium in a clear 96-well flat-bottom microtiter plate. Indicator strains were diluted to 10^5 CFU/mL, from which 50 μL were added to each well. The microtiter plates were incubated for 24 h under appropriate conditions, and optical densities were recorded at 595 nm (Infinite M200, Tecan, Switzerland). Control wells contained untreated culture and appropriate medium (blanks). The number of inhibition wells was noted and inhibition activities were calculated in μg/mL."}, "[2]": {"system": "rat erythrocytes", "assay": "Hemolytic activity", "type": "cell-based", "conditions": "45 min, 37°C", "procedure": "The experiment was performed after prior approval from the local ethics committee by TransBIOTech laboratory. Hemolytic potential of bacteriocins was evaluated according to [FDA (2005)]. Rat blood was collected into a heparinized tube and added in a 1:1 volume (100 μL) to serially diluted compounds (in 100 μL PBS), in a conical 96-well plate. 10% Triton X-100 and PBS were used as a positive and negative controls, respectively. The plates were sealed and incubated for 45 min at 37°C prior to centrifugation at 2,000 g for 10 min to pellet red blood cells. The supernatant was then transferred into clear 96-well plates and the absorbance was read at 540 nm (hemoglobin). The percentage of hemolysis was calculated as follow, with RBC standing for red blood cells:\n%Hemolysis=AbsorbanceofRBCtreatedwithbacteriocins-AbsorbanceofRBCtreatedwithPBS/AbsorbanceofRBCtreatedwithTritonX100-AbsorbanceofRBCtreatedwithPBS"}}, "note": "Like-named read-outs stand apart in the source and are kept apart here.", "data": [{"smiles": "C=C(NC(=O)[C@@H](NC(=O)[C@H](Cc1c[nH]cn1)NC(=O)[C@@H](NC(=O)[C@H](CO)NC(=O)[C@@H]1CS[C@@H](C)[C@H]2NC(=O)[C@H](C)NC(=O)[C@H](NC(=O)[C@H](CCCCN)NC(=O)[C@H](CCSC)NC(=O)[C@H](CC(N)=O)NC(=O)[C@@H]3CS[C@@H](C)[C@@H](NC(=O)[C@H](CCCCN)NC(=O)[C@@H]4CS[C@@H](C)[C@@H](NC(=O)[C@@H]5CSC[C@@H](NC(=O)/C(=C/C)NC(=O)[C@@H](N)[C@@H](C)CC)C(=O)N[C@@H]([C@@H](C)CC)C(=O)NC(=C)C(=O)N[C@@H](CC(C)C)C(=O)N5)C(=O)N5CCC[C@H]5C(=O)NCC(=O)N4)C(=O)NCC(=O)N[C@@H](C)C(=O)N[C@@H](CC(C)C)C(=O)N[C@@H](CCSC)C(=O)NCC(=O)N3)[C@H](C)SC[C@H](NC2=O)C(=O)N[C@@H](CC(N)=O)C(=O)N1)[C@@H](C)CC)C(C)C)C(=O)N[C@@H](CCCCN)C(=O)O", "note": "[nisin Z]", "values": [{"measurement": "Total activity", "setting": "[1]; after gastric conditions (SGF, pepsin 2000 U/mL, lipase 60 U/mL, pH 3, 90 min, 37°C)", "value": 3.12, "unit": "AU/mL"}, {"measurement": "Total activity", "setting": "[1]; after oral conditions (SSF, 2 min, 37°C)", "value": 3.12, "unit": "AU/mL"}, {"measurement": "Total activity", "setting": "[1]; after small intestinal conditions (SIF, bile salt 10 mmol/L, pancreatin 100 U/mL, pH 7, 2 h, 37°C)", "value": 200, "unit": "AU/mL"}, {"measurement": "MIC", "setting": "[1]; against L. ivanovii", "value": 1.65, "unit": "µg/mL"}, {"measurement": "Total activity", "setting": "[1]; pure compound without GI digestion, 24 h, OD 595 nm", "value": 3.12, "unit": "AU/mL"}, {"measurement": "Concentration above which dose-dependent increase in percentage of hemolysis was shown", "setting": "[2]; 0.4 to 400 μg/mL", "value": "higher than 50 μg/mL"}, {"measurement": "Hemolysis", "setting": "[2]; at concentrations close to 400 μg/mL", "value": "approximately 100%"}]}]}
